The record followed here is US11767322B2 (BRISTOL-MYERS SQUIBB COMPANY, priority 2020, dated 2023).

Assay [1] has as its system MLKL phosphorylation in HT29-L23 human colorectal adenocarcinoma cells. Put plainly: MLKL phosphorylation high-content assay. It counts as cell-based.
Assay [2] has as its target T1, His-GST-TVMV-hRIPK1(1-324) (Homo sapiens, UniProt Q13546).
T1 construct: The coding region of human RIPK1(1-324) flanked by NdeI site at 5′ end; made in house; host or cells: Spodoptera frugiperda Sf9 insect cells (baculovirus, Bac-to-Bac)
T1 sequence (Q13546 1-324): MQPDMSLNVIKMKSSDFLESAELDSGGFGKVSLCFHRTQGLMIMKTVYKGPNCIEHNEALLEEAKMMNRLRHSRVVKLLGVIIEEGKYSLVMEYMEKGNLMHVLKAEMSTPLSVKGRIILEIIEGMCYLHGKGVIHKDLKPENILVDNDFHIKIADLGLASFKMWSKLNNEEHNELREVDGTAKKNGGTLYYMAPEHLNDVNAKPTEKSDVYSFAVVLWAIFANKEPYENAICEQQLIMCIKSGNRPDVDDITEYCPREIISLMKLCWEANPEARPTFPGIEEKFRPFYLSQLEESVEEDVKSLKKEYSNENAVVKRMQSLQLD
Put plainly: biochemical. It counts as binding.

Setting [3] is: Homo sapiens, 6 h, read-out: pMLKL IC50, HT29-L23 cells, necroptosis induced with TNFα, SMAC mimetic and Z-VAD, 6 h, maximal inhibition defined by Nec1s.
The mark [4] stands for this setting: HTRF probe displacement, 1 h at rt, read-out: RIPK1 IC50.
Setting [5] is: read-out: pMLKL IC50, HT29-L23 cells, necroptosis induced with TNFα, SMAC mimetic and Z-VAD, 6 h, maximal inhibition defined by Nec1s.

pIC50: −log10 of the molar value. Where two headings read alike, the source gives them in different places.

One may read the pIC50 as the IC50 on a negative log10 scale, so that one unit is a factor of ten. With `Cc1ccc(-c2ccn3nc(N)nc3c2)c(F)c1C(=O)NCC(F)(F)C1(c2ccc(F)cc2)COC1` [Example 246, 3-(2-amino-[1,2,4]triazolo[1,5-a]pyridin-7-yl)-N-(2,2-difluoro-2-(3-(4-fluorophenyl)oxetan-3-yl)ethyl)-2-fluoro-6-methylbenzamide], the pIC50 in assay [1] (setting [3]) is 8.66; in assay [2] (setting [4]), 7.82.
In the case of `Nc1nc2cc(-c3ccc(Cl)c(C(=O)NCC(F)C(O)c4ccc(Cl)cc4)c3F)ccn2n1` (stereo not shown) [Example 129, 3-(2-amino-[1,2,4]triazolo[1,5-a]pyridin-7-yl)-6-chloro-N-(3-(4-chlorophenyl)-2-fluoro-3-hydroxypropyl)-2-fluorobenzamide], the pIC50 was 8.77 in assay [1] (setting [5]) and 8.46 in assay [2] (setting [4]).
Regarding `[2H]C([2H])([2H])c1ccc(-c2ccn3nc(N)nc3c2)c(F)c1C(=O)NCC(F)(F)C(O)c1ccc(F)cc1` (stereo not shown) [Example 123, 3-(2-amino-[1,2,4]triazolo[1,5-a]pyridin-7-yl)-N-(2,2-difluoro-3-(4-fluorophenyl)-3-hydroxypropyl)-2-fluoro-6-(methyl-d3)benzamide], the results for the pIC50 in assay [1] (setting [3]) and in assay [2] (setting [4]) were 9.10 and 8.24, respectively.
`Nc1nc2cc(-c3ccc(Cl)c(C(=O)NCC(F)(F)C(O)c4cccc(Cl)c4)c3F)ccn2n1` (stereo not shown) [Example 192, 3-(2-amino-[1,2,4]triazolo[1,5-a]pyridin-7-yl)-6-chloro-N-(3-(3-chlorophenyl)-2,2-difluoro-3-hydroxypropyl)-2-fluorobenzamide]: the negative-log IC50 (pIC50) was 8.92 in assay [1] (setting [5]) and 8.46 in assay [2] (setting [4]).
Turning to `Cc1ccc(-c2ccn3nc(N)nc3c2)c(F)c1C(=O)NCC(O)C(F)(F)c1ccc(F)cc1` (single isomer, unassigned) [Example 290, 3-(2-amino-[1,2,4]triazolo[1,5-a]pyridin-7-yl)-N-(3,3-difluoro-3-(4-fluorophenyl)-2-hydroxypropyl)-2-fluoro-6-methylbenzamide], the pIC50 in assay [1] (setting [5]) is 9.30; in assay [1] (read-out: pMLKL IC50, Table 22, compounds of the present invention) it was 9.30; in assay [2] (setting [4]) it was 8.32; in assay [2] (Table 22, compounds of the present invention, read-out: RPIK1 IC50), 8.32.
`Nc1nc2cc(-c3ccc(Cl)c(C(=O)NCCC(O)c4ccc(Cl)cn4)c3F)ccn2n1` (stereo not shown) [Example 81, 3-(2-amino-[1,2,4]triazolo[1,5-a]pyridin-7-yl)-6-chloro-N-(3-(5-chloropyridin-2-yl)-3-hydroxypropyl)-2-fluorobenzamide]: the pIC50 in assay [1] (setting [3]) is 7.42; in assay [2] (setting [4]) it was 7.62.
Turning to `[2H]C([2H])([2H])c1ccc(-c2ccn3nc(N)nc3c2)c(F)c1C(=O)NCC1(C([2H])(O)c2ccc(F)cc2)CC1` (single isomer, unassigned) [Example 310, 3-(2-amino-[1,2,4]triazolo[1,5-a]pyridin-7-yl)-2-fluoro-N-((1-((4-fluorophenyl) (hydroxy)methyl-d)cyclopropyl)methyl)-6-(methyl-d3)benzamide], the values for the negative logarithm of the IC50 (pIC50) in assay [1] (setting [5]) and in assay [2] (setting [4]) were 7.70 and 8.24, respectively.
In the same order, the values of `[2H]C([2H])([2H])c1ccc(-c2ccn3nc(N)nc3c2)c(F)c1C(=O)NCC(F)(F)C(C)(O)c1ccc(Cl)cc1` (single isomer, unassigned) [Example 253, 3-(2-amino-[1,2,4]triazolo[1,5-a]pyridin-7-yl)-N-(3-(4-chlorophenyl)-2,2-difluoro-3-hydroxybutyl)-2-fluoro-6-(methyl-d3)benzamide] are 8.92 and 8.62.
Taken in the same sequence, the figures for `Nc1nc2cc(-c3ccc(Cl)c(C(=O)NCC(F)(F)C(O)c4cccc(F)c4)c3F)ccn2n1` (single isomer, unassigned) [Example 169, 3-{2-amino-[1,2,4]triazolo[1,5-a]pyridin-7-yl}-6-chloro-N-[2,2-difluoro-3-(3-fluorophenyl)-3-hydroxypropyl]-2-fluorobenzamide] were 7.55 and 9.05.
In the same order, the values of `[2H]C([2H])(CC([2H])(O)c1ccc(Cl)cc1)NC(=O)c1c(Cl)ccc(-c2ccn3nc(N)nc3c2)c1F` (stereo not shown) [Example 75, 3-(2-amino-[1,2,4]triazolo[1,5-a]pyridin-7-yl)-6-chloro-N-(3-(4-chlorophenyl)-3-hydroxypropyl-1,1,3-d3)-2-fluorobenzamide] are 8.37 and 8.49.
`Nc1nc2cc(-c3ccc(Cl)c(C(=O)NCC(O)C(F)(F)c4ccc(F)cc4)c3F)ccn2n1` (single isomer, unassigned) [Example 292, 3-(2-amino-[1,2,4]triazolo[1,5-a]pyridin-7-yl)-6-chloro-N-(3,3-difluoro-3-(4-fluorophenyl)-2-hydroxypropyl)-2-fluorobenzamide]: the pIC50 in assay [1] (setting [3]) is 9.00; in assay [2] (setting [4]), 8.62.
On to `[2H]C([2H])([2H])C(O)(c1ccc(F)cc1)C(F)CNC(=O)c1c(C(F)F)ccc(-c2ccn3nc(N)nc3c2)c1F` (single isomer, unassigned) [Example 196, 3-(2-amino-[1,2,4]triazolo[1,5-a]pyridin-7-yl)-6-(difluoromethyl)-2-fluoro-N-(2-fluoro-3-(4-fluorophenyl)-3-hydroxybutyl-4,4,4-d3)benzamide], for which the pIC50 in assay [1] (setting [5]) was 9.00; in assay [2] (setting [4]), 7.85.
For the molecule `Nc1nc2cc(-c3ccc(Cl)c(C(=O)NCC(F)(F)C(O)c4cccc(F)c4F)c3F)ccn2n1` (single isomer, unassigned) [Example 167, 3-(2-amino-[1,2,4]triazolo[1,5-a]pyridin-7-yl)-6-chloro-N-(3-(2,3-difluorophenyl)-2,2-difluoro-3-hydroxypropyl)-2-fluorobenzamide], the figures for the pIC50 in assay [1] (setting [5]) and in assay [2] (setting [4]) were 8.11 and 7.82, respectively.
In the same order, the values of `[2H]C([2H])([2H])c1ccc(-c2ccn3nc(N)nc3c2)c(F)c1C(=O)NCC(F)(F)C(C)(O)c1ccc(F)cc1` (single isomer, unassigned) [Example 242, 3-(2-amino-[1,2,4]triazolo[1,5-a]pyridin-7-yl)-N-(2,2-difluoro-3-(4-fluorophenyl)-3-hydroxybutyl)-2-fluoro-6-(methyl-d3)benzamide] are 9.00 and 8.04.
Taken in the same sequence, the figures for `Cc1ccc(-c2ccn3nc(N)nc3c2)c(F)c1C(=O)NCC(F)(F)C(O)c1ccnc(C(F)(F)F)c1` (single isomer, unassigned) [Example 261, 3-(2-amino-[1,2,4]triazolo[1,5-a]pyridin-7-yl)-N-(2,2-difluoro-3-hydroxy-3-(2-(trifluoromethyl)pyridin-4-yl)propyl)-2-fluoro-6-methylbenzamide] were 7.10 and 7.40.
Taken in the same sequence, the figures for `Nc1nc2cc(-c3ccc(Cl)c(C(=O)NCC(F)(F)C(O)c4cccc(Cl)n4)c3F)ccn2n1` (single isomer, unassigned) [Example 263, 3-(2-amino-[1,2,4]triazolo[1,5-a]pyridin-7-yl)-6-chloro-N-(3-(6-chloropyridin-2-yl)-2,2-difluoro-3-hydroxypropyl)-2-fluorobenzamide] were 7.32 and 7.68.
`CC(O)(c1ccc(F)cc1)C(F)(F)CNC(=O)c1c(Cl)ccc(-c2ccn3nc(N)nc3c2)c1F` (single isomer, unassigned) [Example 88, 3-(2-amino-[1,2,4]triazolo[1,5-a]pyridin-7-yl)-6-chloro-N-(2,2-difluoro-3-(4-fluorophenyl)-3-hydroxybutyl)-2-fluorobenzamide]: the negative-log IC50 (pIC50) in assay [1] (setting [3]) is 8.62; in assay [2] (setting [4]) it was 8.44.
Turning to `[2H]C([2H])(CC([2H])(O)c1ccc(Cl)cc1)NC(=O)c1c(Cl)ccc(-c2ccn3nc(N)nc3c2)c1F` (single isomer, unassigned) [Example 77, 3-(2-amino-[1,2,4]triazolo[1,5-a]pyridin-7-yl)-6-chloro-N-(3-(4-chlorophenyl)-3-hydroxypropyl-1,1,3-d3)-2-fluorobenzamide], the pIC50 in assay [1] (setting [5]) was 8.11; in assay [2] (setting [4]) it was 8.54.
Taken in the same sequence, the figures for `Cc1ccc(-c2ccn3nc(N)nc3c2)c(F)c1C(=O)NCC(C)(F)C(O)c1ccc(F)cc1` (single isomer, unassigned) [Example 204, 3-(2-amino-[1,2,4]triazolo[1,5-a]pyridin-7-yl)-2-fluoro-N-(2-fluoro-3-(4-fluorophenyl)-3-hydroxy-2-methylpropyl)-6-methylbenzamide] were 8.57 and 8.24.
As to `Cc1ccc(-c2ccn3nc(N)nc3c2)c(F)c1C(=O)NCCC(O)c1cccc(C#N)c1` (stereo not shown) [Example 140, 3-{2-amino-[1,2,4]triazolo[1,5-a]pyridin-7-yl}-N-[3-(3-cyanophenyl)-3-hydroxypropyl]-2-fluoro-6-methylbenzamide], the figures for the pIC50 in assay [1] (setting [3]) and in assay [2] (setting [4]) were 7.89 and 9.22, respectively.
`Cc1ccc(-c2ccn3nc(N)nc3c2)c(F)c1C(=O)NCCC(C)(O)c1ccc(C#N)cc1` (stereo not shown) [Example 141, 3-{2-amino-[1,2,4]triazolo[1,5-a]pyridin-7-yl}-N-[3-(4-cyanophenyl)-3-hydroxybutyl]-2-fluoro-6-methylbenzamide]: the pIC50 in assay [1] (setting [3]) is 7.42; in assay [2] (setting [4]) it was 7.66.
For the molecule `Cc1cc(F)c(-c2ccn3nc(N)nc3c2)cc1C(=O)NCC[C@H](O)c1ccc(Cl)cc1` [Example 1, (S)-5-(2-amino-[1,2,4]triazolo[1,5-a]pyridin-7-yl)-N-(3-(4-chlorophenyl)-3-hydroxypropyl)-4-fluoro-2-methylbenzamide], the negative logarithm of the IC50 (pIC50) in assay [1] (setting [3]) was 8.89; in assay [2] (setting [4]) it was 8.92.
